The target of assay [1] is T1, Delta-type opioid receptor (Homo sapiens, UniProt P41143). Description: Displacement of [3H]-DPDPE from human delta opiod receptor expressed in human HEK293 cells incubated for 60 mins by liquid scintillation counting method. It is filed as cell-based.
For assay [2], the species on record is Homo sapiens. Kind of assay: Selectivity index, ratio of Ki for human mu opiod receptor expressed in CHO cells to Ki for human kappa opiod receptor expressed in CHO cells. The format is cell-based.
Assay [3] has as its target T2, Kappa-type opioid receptor (Homo sapiens, UniProt P41145). Description: Displacement of [3H]-U69593 from human kappa opiod receptor expressed in CHO cells incubated for 60 mins by liquid scintillation counting method. It is filed as cell-based.
In assay [4] the target is T3, Mu-type opioid receptor (Homo sapiens, UniProt P35372). Kind of assay: Displacement of [3H]-DAMGO from human mu opiod receptor expressed in CHO cells at 1 uM incubated for 60 mins by liquid scintillation counting method relative to control. The format is cell-based.
T3 sequence (P35372 whole entry): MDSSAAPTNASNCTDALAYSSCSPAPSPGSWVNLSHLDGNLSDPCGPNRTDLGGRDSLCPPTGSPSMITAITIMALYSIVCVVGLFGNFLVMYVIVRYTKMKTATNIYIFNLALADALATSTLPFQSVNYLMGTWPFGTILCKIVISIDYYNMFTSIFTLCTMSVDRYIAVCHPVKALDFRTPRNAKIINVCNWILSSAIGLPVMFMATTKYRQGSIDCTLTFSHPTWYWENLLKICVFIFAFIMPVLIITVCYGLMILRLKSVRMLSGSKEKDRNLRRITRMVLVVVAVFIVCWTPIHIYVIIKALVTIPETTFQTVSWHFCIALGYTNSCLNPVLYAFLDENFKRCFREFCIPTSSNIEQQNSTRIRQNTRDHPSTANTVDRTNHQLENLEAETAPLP
The species named for assay [5] is Homo sapiens. Description: Selectivity index, ratio of IC50 for human mu opiod receptor expressed in CHO cells to IC50 for human kappa opiod receptor expressed in CHO cells. It is filed as cell-based.
The target of assay [6] is T3, Mu-type opioid receptor. Kind of assay: Antagonist activity at human mu opiod receptor expressed in CHO cells assessed as inhibition of DAMGO-induced [35S]GTPgammaS binding incubated for 4 hrs by microbeta liquid scintillation counting method. It is filed as functional, cell-based.
The target in assay [7] is T3, Mu-type opioid receptor. Kind of assay: Displacement of [3H]-DAMGO from human mu opiod receptor expressed in CHO cells incubated for 60 mins by liquid scintillation counting method. The format is cell-based.
Assay [8] concerns the target T3, Mu-type opioid receptor. Kind of assay: Displacement of [3H]-DAMGO from human mu opiod receptor expressed in CHO cells at 10 uM incubated for 60 mins by liquid scintillation counting method relative to control. The format is cell-based.
The target in assay [9] is T1, Delta-type opioid receptor. Description: Displacement of [3H]-DPDPE from human delta opiod receptor expressed in human HEK293 cells at 1 uM incubated for 60 mins by liquid scintillation counting method relative to control. The format is cell-based.
For assay [10], the target named is T2, Kappa-type opioid receptor. Kind of assay: Antagonist activity at human kappa opiod receptor expressed in CHO cells assessed as inhibition of U69593-induced [35S]GTPgammaS binding incubated for 4 hrs by microbeta liquid scintillation counting method. It is filed as functional, cell-based.
For assay [11], the species on record is Homo sapiens. Description: Selectivity index, ratio of Ki for human delta opiod receptor expressed […] for human kappa opiod receptor expressed in CHO cells. The format is cell-based.
The target in assay [12] is T1, Delta-type opioid receptor. Description: Antagonist activity at human delta opiod receptor expressed in human HEK293 cells assessed as inhibition of DPDPE-induced [35S]GTPgammaS binding incubated for 2 hrs by microbeta liquid scintillation counting method. The format is functional, cell-based.
For assay [13], the species on record is Homo sapiens. Description: Selectivity index, ratio of IC50 for human delta opiod receptor expressed in HEK293 cells to IC50 for human kappa opiod receptor expressed in CHO cells.
Assay [14] has as its target T2, Kappa-type opioid receptor. Description: Displacement of [3H]-U69593 from human kappa opiod receptor expressed in CHO cells at 1 uM incubated for 60 mins by liquid scintillation counting method relative to control. The format is cell-based.
For assay [15], the target named is T1, Delta-type opioid receptor. Kind of assay: Displacement of [3H]-DPDPE from human delta opiod receptor expressed in human HEK293 cells at 10 uM incubated for 60 mins by liquid scintillation counting method relative to control. The format is cell-based.
Assay [16] addresses T2, Kappa-type opioid receptor. Kind of assay: Displacement of [3H]-U69593 from human kappa opiod receptor expressed in CHO cells at 10 uM incubated for 60 mins by liquid scintillation counting method relative to control. The format is cell-based.

SMILES strings stand for the structures.

T1 sequence (P41143 whole entry): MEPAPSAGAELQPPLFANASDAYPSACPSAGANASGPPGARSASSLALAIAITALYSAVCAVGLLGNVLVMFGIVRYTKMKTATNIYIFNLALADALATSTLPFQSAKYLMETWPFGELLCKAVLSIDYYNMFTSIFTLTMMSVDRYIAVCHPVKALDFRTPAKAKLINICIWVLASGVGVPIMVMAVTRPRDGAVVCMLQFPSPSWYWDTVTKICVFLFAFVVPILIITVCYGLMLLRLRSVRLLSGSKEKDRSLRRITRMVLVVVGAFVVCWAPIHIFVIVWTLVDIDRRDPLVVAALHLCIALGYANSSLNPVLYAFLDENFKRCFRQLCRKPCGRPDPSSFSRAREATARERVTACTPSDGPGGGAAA
T2 sequence (P41145 whole entry): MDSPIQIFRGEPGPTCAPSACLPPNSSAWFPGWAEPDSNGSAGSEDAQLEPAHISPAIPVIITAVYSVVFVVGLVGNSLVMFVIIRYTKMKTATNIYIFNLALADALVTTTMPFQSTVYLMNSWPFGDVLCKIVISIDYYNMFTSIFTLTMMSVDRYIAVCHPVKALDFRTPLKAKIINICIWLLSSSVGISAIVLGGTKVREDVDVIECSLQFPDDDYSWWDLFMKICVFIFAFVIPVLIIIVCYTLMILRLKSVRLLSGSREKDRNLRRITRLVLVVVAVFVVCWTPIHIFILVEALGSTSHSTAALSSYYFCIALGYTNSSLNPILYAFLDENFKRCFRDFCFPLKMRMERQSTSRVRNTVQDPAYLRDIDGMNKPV

As for `Cc1cc(C)cc(C2CCCN2Cc2ccc(Oc3ccc(C(N)=O)cc3F)cc2)c1` (racemic), the inhibition constant Ki in assay [1] was 105 nM; in [3], 14 nM; on Mu-type opioid receptor [7] it was 93.7 nM. Moreover, the Ratio Ki in the assay listed under Homo sapiens [2] was found to be 6.7; in the assay listed under Homo sapiens [11], 7.5. Further, the inhibition at Mu-type opioid receptor [4] was found to be 52.7%; on Mu-type opioid receptor [8] it was 87.2%; in assay [9] it was 49.5%. Moreover, the Ratio IC50 turned out to be 3.8 in the assay filed under Homo sapiens [5] and 14.1 in the assay listed under Homo sapiens [13]. In addition, the IC50 at Mu-type opioid receptor [6] is 29.4 nM; in assay [10], 7.7 nM; in assay [12], 109 nM.
As for `COc1ccc(C2CCCN2Cc2ccc(Oc3ccc(C(=O)NO)cc3)cc2)cc1` (stereo not given), the values for the Ki (in [1]; in assay [3]; on Mu-type opioid receptor [7]) were more than 10000 nM, 180 nM and 2310 nM, respectively. For the same compound, the results for the Ratio Ki in the assay listed under Homo sapiens [2] and in the assay listed under Homo sapiens [11] were 12.8 and more than 55.5, respectively. Besides, the inhibition at Mu-type opioid receptor [4] came to 12.8%; in assay [14] it was 52.3%; at Mu-type opioid receptor [8], 40.4%; in assay [9] it was 3.9%; in assay [15], 24.4%; in assay [16], 86%. In addition, the Ratio IC50 in the assay listed under Homo sapiens [5] was 1.1; in the assay listed under Homo sapiens [13], more than 28. The IC50 on Mu-type opioid receptor [6] was 202 nM; in assay [10] it was 178 nM; in assay [12], more than 5000 nM.
Take `Cc1cc(C)cc(C2CCCN2Cc2ccc(Oc3ccc4c(=O)[nH]oc4c3)cc2)c1` (stereo not given): the figures for the inhibitory constant (Ki) (in assay [1]; in [3]; on Mu-type opioid receptor [7]) were 5010 nM, 1410 nM and 1480 nM, respectively. Besides, the Ratio Ki in the assay listed under Homo sapiens [2] was 1; in the assay listed under Homo sapiens [11], 3.5. Also, the inhibition at Mu-type opioid receptor [4] stood at 49.4%; in assay [14] it was 70.6%; at Mu-type opioid receptor [8], 74%; in assay [9] it was 33.9%; in assay [15], 54.8%; in assay [16], 91.6%.
